Experimental data: ChEMBL document CHEMBL4715697, “Synthesis and biological activity of benzamide DNA minor groove binders” (2016)

How the values were obtained:
Assay type in all cases: functional
MDA-MB-435 = assay: Growth inhibition of human MDA-MB-435 cells assessed as cell growth at 0.1 uM incubated for 48 hrs by sulforhodamine B assay relative to control; conditions: read-out: Activity
T47D [1] = assay: Growth inhibition of human T47D cells assessed as cell growth at 100 uM incubated for 48 hrs by sulforhodamine B assay relative to control; conditions: read-out: Activity
SNB-75 = assay: Growth inhibition of human SNB-75 cells assessed as cell growth at 1 uM incubated for 48 hrs by sulforhodamine B assay relative to control; conditions: read-out: Activity
MDA-MB-468 = assay: Growth inhibition of human MDA-MB-468 cells assessed as cell growth at 1 uM incubated for 48 hrs by sulforhodamine B assay relative to control; conditions: read-out: Activity
SW-620 [2] = assay: Growth inhibition of human SW-620 cells assessed as cell growth at 1 uM incubated for 48 hrs by sulforhodamine B assay relative to control; conditions: read-out: Activity
Hs-578T = assay: Growth inhibition of human Hs-578T cells incubated for 48 hrs by sulforhodamine B assay
SK-MEL-2 [3] = assay: Growth inhibition of human SK-MEL-2 cells assessed as cell growth at 0.01 uM incubated for 48 hrs by sulforhodamine B assay relative to control; conditions: read-out: Activity
TK-10 [4] = assay: Growth inhibition of human TK-10 cells incubated for 48 hrs by sulforhodamine B assay
OVCAR-4 = assay: Growth inhibition of human OVCAR-4 cells incubated for 48 hrs by sulforhodamine B assay
TK-10 [5] = assay: Growth inhibition of human TK-10 cells assessed as cell growth at 0.01 uM incubated for 48 hrs by sulforhodamine B assay relative to control; conditions: read-out: Activity
UACC-257 = assay: Growth inhibition of human UACC-257 cells assessed as cell growth at 0.01 uM incubated for 48 hrs by sulforhodamine B assay relative to control; conditions: read-out: Activity
BT-549 [6] = assay: Growth inhibition of human BT-549 cells assessed as cell growth at 1 uM incubated for 48 hrs by sulforhodamine B assay relative to control; conditions: read-out: Activity
SW-620 [7] = assay: Growth inhibition of human SW-620 cells assessed as cell growth at 0.01 uM incubated for 48 hrs by sulforhodamine B assay relative to control; conditions: read-out: Activity
HOP-62 = assay: Growth inhibition of human HOP-62 cells assessed as cell growth at 100 uM incubated for 48 hrs by sulforhodamine B assay relative to control; conditions: read-out: Activity
RXF 393 = assay: Growth inhibition of human RXF 393 cells assessed as cell growth at 0.1 uM incubated for 48 hrs by sulforhodamine B assay relative to control; conditions: read-out: Activity
DU-145 = assay: Growth inhibition of human DU-145 cells assessed as cell growth at 0.01 uM incubated for 48 hrs by sulforhodamine B assay relative to control; conditions: read-out: Activity
SK-MEL-28 = assay: Growth inhibition of human SK-MEL-28 cells assessed as cell growth at 1 uM incubated for 48 hrs by sulforhodamine B assay relative to control; conditions: read-out: Activity
HCT-116 = assay: Growth inhibition of human HCT-116 cells assessed as cell growth at 1 uM incubated for 48 hrs by sulforhodamine B assay relative to control; conditions: read-out: Activity
A498 = assay: Growth inhibition of human A498 cells assessed as cell growth at 0.1 uM incubated for 48 hrs by sulforhodamine B assay relative to control; conditions: read-out: Activity
LOX IMVI = assay: Growth inhibition of human LOX IMVI cells assessed as cell growth at 0.1 uM incubated for 48 hrs by sulforhodamine B assay relative to control; conditions: read-out: Activity
SK-OV-3 = assay: Growth inhibition of human SK-OV-3 cells incubated for 48 hrs by sulforhodamine B assay
ACHN = assay: Growth inhibition of human ACHN cells incubated for 48 hrs by sulforhodamine B assay
K562 = assay: Growth inhibition of human K562 cells incubated for 48 hrs by sulforhodamine B assay
UO-31 = assay: Growth inhibition of human UO-31 cells assessed as cell growth at 100 uM incubated for 48 hrs by sulforhodamine B assay relative to control; conditions: read-out: Activity
BT-549 [8] = assay: Growth inhibition of human BT-549 cells assessed as cell growth at 0.01 uM incubated for 48 hrs by sulforhodamine B assay relative to control; conditions: read-out: Activity
M14 = assay: Growth inhibition of human M14 cells incubated for 48 hrs by sulforhodamine B assay
T47D [9] = assay: Growth inhibition of human T47D cells assessed as cell growth at 0.01 uM incubated for 48 hrs by sulforhodamine B assay relative to control; conditions: read-out: Activity
SK-MEL-2 [10] = assay: Growth inhibition of human SK-MEL-2 cells assessed as cell growth at 1 uM incubated for 48 hrs by sulforhodamine B assay relative to control; conditions: read-out: Activity
SF-539 = assay: Growth inhibition of human SF-539 cells assessed as cell growth at 1 uM incubated for 48 hrs by sulforhodamine B assay relative to control; conditions: read-out: Activity
KM12 = assay: Growth inhibition of human KM12 cells assessed as cell growth at 100 uM incubated for 48 hrs by sulforhodamine B assay relative to control; conditions: read-out: Activity
NCI-H522 = assay: Growth inhibition of human NCI-H522 cells incubated for 48 hrs by sulforhodamine B assay
SF-268 = assay: Growth inhibition of human SF-268 cells assessed as cell growth at 1 uM incubated for 48 hrs by sulforhodamine B assay relative to control; conditions: read-out: Activity
CCRF-CEM = assay: Growth inhibition of human CCRF-CEM cells assessed as cell growth at 0.1 uM incubated for 48 hrs by sulforhodamine B assay relative to control; conditions: read-out: Activity
[11] = read-out: LC50 (the source's name)
[12] = read-out: pLC50 (the source's name) (converted)

## CC(=O)Nc1cc(CO[Si](C)(C)C(C)(C)C)cc(NC(=O)c2ccc(C(=O)Nc3cccc(NC(=O)CCCN(C)C)c3)cc2)c1
MDA-MB-435
  growth at 0.1 µM: 98%
T47D [1]
  growth at 100 µM: 58%
SNB-75
  growth at 1 µM: 80%
MDA-MB-468
  growth at 1 µM: 90%
SW-620 [2]
  growth at 1 µM: 100%
Hs-578T; read-out: GI50
  GI50: > 75 µM
Hs-578T; [11]
  CC50: > 75 µM
Hs-578T; read-out: TGI
  TGI: > 75 µM
Hs-578T; read-out: pGI50 (converted)
  GI50: > 75.9 µM
Hs-578T; [12]
  CC50: > 75.9 µM
Hs-578T; read-out: pTGI
  TGI: > 75.9 µM
SK-MEL-2 [3]
  growth at 0.01 µM: 100%
TK-10 [4]; read-out: GI50
  GI50: > 75 µM
TK-10 [4]; [11]
  CC50: > 75 µM
TK-10 [4]; read-out: TGI
  TGI: > 75 µM
TK-10 [4]; read-out: pGI50 (converted)
  GI50: > 75.9 µM
TK-10 [4]; [12]
  CC50: > 75.9 µM
TK-10 [4]; read-out: pTGI
  TGI: > 75.9 µM
OVCAR-4; read-out: GI50
  GI50: > 75 µM
OVCAR-4; read-out: LC50
  LC50 (concentration killing 50% of cells): > 75 µM
OVCAR-4; read-out: TGI
  TGI: > 75 µM
OVCAR-4; read-out: pGI50 (converted)
  GI50: > 75.9 µM
OVCAR-4; read-out: pLC50 (converted)
  LC50 (concentration killing 50% of cells): > 75.9 µM
OVCAR-4; read-out: pTGI
  TGI: > 75.9 µM
TK-10 [5]
  growth at 0.01 µM: 96%
UACC-257
  growth at 0.01 µM: 94%
BT-549 [6]
  growth at 1 µM: 99%
SW-620 [7]
  growth at 0.01 µM: 100%
HOP-62
  growth at 100 µM: 87%
RXF 393
  growth at 0.1 µM: 102%
DU-145
  growth at 0.01 µM: 103%
SK-MEL-28
  growth at 1 µM: 98%
HCT-116
  growth at 1 µM: 101%
A498
  growth at 0.1 µM: 62%
LOX IMVI
  growth at 0.1 µM: 94%
SK-OV-3; read-out: GI50
  GI50: > 75 µM
SK-OV-3; read-out: LC50
  LC50 (concentration killing 50% of cells): > 75 µM
SK-OV-3; read-out: TGI
  TGI: > 75 µM
SK-OV-3; read-out: pGI50 (converted)
  GI50: > 75.9 µM
SK-OV-3; read-out: pLC50 (converted)
  LC50 (concentration killing 50% of cells): > 75.9 µM
SK-OV-3; read-out: pTGI
  TGI: > 75.9 µM
ACHN; read-out: GI50
  GI50: > 75 µM
ACHN; [11]
  CC50: > 75 µM
ACHN; read-out: TGI
  TGI: > 75 µM
ACHN; read-out: pGI50 (converted)
  GI50: > 75.9 µM
ACHN; [12]
  CC50: > 75.9 µM
ACHN; read-out: pTGI
  TGI: > 75.9 µM
K562; read-out: GI50
  GI50: > 75 µM
K562; [11]
  CC50: > 75 µM
K562; read-out: TGI
  TGI: > 75 µM
K562; read-out: pGI50 (converted)
  GI50: > 75.9 µM
K562; [12]
  CC50: > 75.9 µM
K562; read-out: pTGI
  TGI: > 75.9 µM
UO-31
  growth at 100 µM: 89%
BT-549 [8]
  growth at 0.01 µM: 95%
M14; read-out: GI50
  GI50: > 75 µM
M14; [11]
  CC50: > 75 µM
M14; read-out: TGI
  TGI: > 75 µM
M14; read-out: pGI50 (converted)
  GI50: > 75.9 µM
M14; [12]
  CC50: > 75.9 µM
M14; read-out: pTGI
  TGI: > 75.9 µM
T47D [9]
  growth at 0.01 µM: 99%
SK-MEL-2 [10]
  growth at 1 µM: 112%
SF-539
  growth at 1 µM: 100%
KM12
  growth at 100 µM: 88%
NCI-H522; read-out: GI50
  GI50: > 75 µM
NCI-H522; [11]
  CC50: > 75 µM
NCI-H522; read-out: TGI
  TGI: > 75 µM
NCI-H522; read-out: pGI50 (converted)
  GI50: > 75.9 µM
NCI-H522; [12]
  CC50: > 75.9 µM
NCI-H522; read-out: pTGI
  TGI: > 75.9 µM
SF-268
  growth at 1 µM: 101%
CCRF-CEM
  growth at 0.1 µM: 98%
